In US20110020471A1, “ERYTHROCYTE ATP-RELEASE MODULATORS” (Wayne State University, priority 2007, published 2011):

How the values were obtained:
[1] = test system: rabbit red blood cells (RBCs); experiment: Deformation-induced ATP release from rabbit RBCs pumped through microbore tubing (luciferin/luciferase chemiluminescence); format: cell-based
Experimental: (§1) Preparation of RBCs. Rabbits (New Zealand whites, males, 2.0-2.5 kg) were anesthetized with ketamine ([…], i.m.) and xylazine (1 mg/kg, i.m.) followed by pentobarbital sodium (15 mg/kg i.v.). A cannula was placed in the trachea and the animals were ventilated with room air. A catheter was placed into a carotid artery for administration of heparin and for phlebotomy. After heparin (500 units, i.v.), the animals were exsanguinated. Human blood was obtained by venipuncture without the use of a tourniquet (antecubital fossa) and collected into a heparinized syringe. Blood was centrifuged at 500×g at 4 C for 10 min. The plasma and buffy coat were discarded. The RBCs were resuspended and washed three times in a physiological salt solution [PSS, containing in mM: 4.7 KCl, 2.0 CaCl2, 140.5 NaCl […], 21.0 tris(hydroxymethyl)aminomethane, 11.1 dextrose with 5% bovine serum albumin (final pH 7.4)]. Cells were prepared on the day of use and experiments were finished within 8 hours of removal from the animal or human subjects. All procedures were approved by the Animal Investigation Committee or the Human Investigation Committee at Wayne State University.
(§2) Measurement of ATP. Human C-peptide (American Peptide Co., Sunnyvale, Calif.), 0.25 mg (MW=3020 g/mol), was dissolved in […] of purified water (18.2 megaohm) to yield a concentration of 83 μM. […] The resulting chemluminescence reaction flowed through a final potion of fused-silica microbore tubing that was placed over a photomultiplier tube, where the emission was detected. The resultant current was measured as a potential by a data acquisition board operated by a program written with the LabView software package (National Instruments, Austin, Tex.).
Introduction. […] Upon deformation in the tubing, the RBCs release ATP that is measured using a well-established chemiluminescence assay for ATP. The concentrations of RBC-derived ATP are measured in the presence and absence of synthetic C-peptide.
C-Peptide-Induced Release of ATP. RBCs obtained from rabbits are pumped through microbore tubing having an inside diameter of […] and the resultant ATP released by the cells upon deformation in the tubing is measured. […] Another aliquot from the same RBC sample is incubated in 1 nM C-peptide and the resultant ATP release measured every 2 h for a period up to 6 h. […] As shown, the ATP release (determined by a chemiluminescence assay) from those cells incubated in the c-peptide increased approximately 2.9 times over a period of […]. […] If cell lysis were occurring, the glybenclamide would have no affect on the measured ATP as it would be present in extracellular form whether or not glybenclamide was introduced to the RBCs. […]

diabetic human RBCs = experiment: ATP release from RBCs of patients with type II diabetes; format: cell-based; conditions: for ATP release: diabetic human RBCs, ±SEM (n=7)
Experimental: as §1
as §2, with “μM. Next, an appropriate volume of this C-peptide solution was added to 10 mL of a 7% solution of RBCs to create a solution containing the C-peptide at concentrations in the 1-5 nM range.” for “μM.”, “Tex.). […]” for “Tex.).”

RBCs [2] = experiment: Lysis control: ATP signal of RBC solutions under non-flow conditions (luminometer); format: cell-based; conditions: 200 μL RBC solution and 200 μL luciferin/luciferase
Experimental: To ensure that the resulting increase in ATP release was due to C-peptide interacting with the RBCs and not cell lysis, the RBC solutions were measured under non-flow conditions using a luminometer with 200 μL of the RBC solution and 200 μL of the luciferin/luciferase solution. […] To ensure that lysis was not occurring in the tubing, a solution of 0.01 M glybenclamide was prepared by adding 49 mg of glybenclamide (Sigma) to 2 mL of a 0.1 M solution of sodium hydroxide. To this, 7.94 mL of a dextrose solution (1 g dextrose in 20 mL of purified water) was added. The mixture was heated carefully to 52° C. until all of the glybenclamide was dissolved. Once the solute was completely dissolved, 1 mL of this solution was added to 9 mL of PSS, resulting in a solution with a concentration 0.001 M. From this diluted solution, 2.5 mL were added to 2.5 mL of 7% hematocrit RBC solution, resulting in a 3.5% hematocrit solution of RBCs. This solution was allowed to incubate for 15 minutes. As a comparison, 2.5 mL of wash buffer without glybenclamide was added to 2.5 mL of 7% hematocrit RBCs. After 15 minutes, the RBC solutions were assayed.

[3] = Electrospray ionization mass spectrometry of C-peptide and metal adducts in aqueous solution; format: physicochemical; conditions: ESI-MS, remaining in solution for periods >30 days
Experimental: Mass Spectrometric Analysis of Metal-Peptide Binding. […] Thus, alternative postulated causes are tested, including that a covalent modification of the peptide, e.g., induction or lysis of a side-chain-to-side-chain bond or of a moiety covalently attached to an amino acid residue, might be involved, or that non-covalent interaction with another chemical species, e.g., a metal ion, might be involved in this effect.
The data in FIG. 3 reveal some information about the possible loss of activity of the C-peptide after preparation in the aqueous solvent. Specifically, the mass spectrum shown in FIG. 3a is that of peptide prepared in water and analyzed within 0.5 h of preparation. In 3a, the [M+3H]^3+ peak is present as are other forms of the peptide with sodium atoms, potassium atoms, or a combination thereof. […] The presence of this Fe(II) adduct to the C-peptide is not present 24 h after preparation.
Although the Fe(II)-bound C-peptide has the ability to increase ATP-release from deformed RBCs, its activity also appears somewhat limited. […] The unexpected result is that the population of Fe(II)-C-peptide adduct begins to diminish within 24 h after the addition of an Fe(II) source, and Fe(II) is then replaced by either sodium or potassium, or both, cations in the C-peptide complex.
Improving Metal-Induced Activity of C-Peptide. […]

RBCs [4] = experiment: Loss of ATP-release bioactivity of C-peptide preparation in water (metaanalysis of repeats of Experiments 1 and 2); format: cell-based

Molecule	increase in ATP release versus control (buffer without C-peptide) ([1]; 1 nM C-peptide, over the 6 h period)	increase in ATP release ([1]; 1 nM c-peptide, over a period of 8 h, normalized values)	ability to induce ATP release from deformed RBCs ([1]; C-peptide kept at 4° C. for >30 days)	restoration of ATP release levels of diabetic RBCs (diabetic human RBCs; RBCs of patients with type II diabetes (n=7))	ATP release (diabetic human RBCs; after 6 hours of incubation with freshly prepared C-peptide preparation) [nM]	ATP release (diabetic human RBCs; at 0 hours, freshly prepared C-peptide preparation) [nM]	ATP signal under non-flow conditions (RBCs [2])	degradation or cleavage of the peptide in solution [3]	time to loss of bioactivity after preparation in water (RBCs [4]) [h]	effect on the C-peptide-induced increase in ATP release ([1]; RBCs incubated in glybenclamide)
C-peptide: Human proinsulin C-peptide (American Peptide Co.), MW 3020 g/mol, synthetic (EAEDLQVGQVELGGGPGAGSLQPLALEGSLQ; (1)..(31) Hominidae sp. proinsulin C-peptide Human (Genbank P01308..gi124617), Chimpanzee (Genbank NP_001008996.1.. gi57113877), Orangutan (Genbank Q8HXV2..gi48428254), and Gorilla (Genbank AAM76640.1..gi23379796); listed as Hominidae sp.)	nearly three times that of the RBCs incubated with a control	approximately 2.9 times	no longer has the ability to induce ATP release from deformed RBCs	statistically equivalent to that of healthy, non-diabetic control patients	256.1 ± 38.7	63.6 ± 12.6	No detectable signals	not undergoing any type of degradation or cleavage	24 to 36	
COc1ccc(Cl)cc1C(=O)NCCc1ccc(S(=O)(=O)NC(=O)NC2CCCCC2)cc1 [glybenclamide, reference compound]										can be inhibited
